Measured values: patent publication US20190298740A1, “METHODS AND COMPOSITIONS FOR TREATING HALLUCINATIONS AND CONDITIONS RELATED TO THE SAME” (Enterin, Inc., priority 2018, published 2019)
“Also recorded” adds a separate entry of the source.

Experiments:
[1] = cited from earlier work
[2] = cited from earlier work; remark: listed apart in the source
[3] = Aminosterol-induced response after a single oral dose; type: in vivo; conditions: single 200 mg oral dose
[4] = cited from earlier work; remark: listed apart in the source
[5] = system: Parkinson's disease patient with hallucinations; assay: Case reports: oral squalamine in PD patients with hallucinations (Examples 1-3); type: in vivo, human
Source text: MV1, a person with a 13-year history of PD had been suffering from daily visual hallucinations for 5 years. MV1 reported that the hallucinations occurred at night. MV1 was aware that the apparitions were unreal, and they were fully awake when they occurred. The hallucinations consisted mostly of faceless dead relatives who came into their bedroom, sat on their bed, or in a chair, or walked around. […] Sometimes MV1 would shout at the hallucinations to go away and the hallucinations would disappear. MV1 also had tactile hallucinations, causing MV1 to feel that insects such as cockroaches were climbing up their legs. They would bend down and attempt to brush them off their feet and legs. MV1 also had tactile hallucinations of the hands “as if someone was picking at them”. They were not treated with any antipsychotic medication and they didn't take any sleeping pills or sedatives. They also suffered from REM-behavior disorder (RBD), and had thrashing of arms and legs during their sleep. Their spouse had moved out of the bed several years prior because of the thrashing, screaming and hallucinations.
The patient was started on 75 mg squalamine daily. […] They were also sleeping better. […] Subsequently, the dose was increased to 175 mg, and maintained at 175 mg per day for another week or two, before discontinued. […]
NY1, a person with a 5-year history of PD suffered from daily hallucinations. The hallucinations had been occurring for a number of years. The hallucinations occurred any time of day or night.
NY1 was started on squalamine 75 mg daily and then escalated to 100 mg daily. […] They were maintained at 125 mg per day for about a week, after which medication was discontinued. NY1 remained hallucination-free for 9 days following discontinuation.
The patient, a person with a 10-year history of Parkinson's Disease suffered from frequent hallucinations. The hallucinations would occur at night and consist of people roaming around in their bedroom, such as a young person sitting on their bed, or a priest standing by the bed. They were fully awake and aware that the visions were unreal. They also suffered from fragmented sleep and REM-behavior disorder (RBD).
BC was started on a squalamine dose of 75 mg daily, which was increased to a daily dose of 175 mg that was maintained for a 3-month period. […] They described the hallucinations as cooks with white top hats and cleaners in blue uniforms. […] Upon discontinuing the medication, the hallucinations returned. This cycle of stopping and resuming squalamine treatment was repeated three times, and the hallucinations abated every time the squalamine treatment was resumed and hallucinations came back every time squalamine treatment was stopped. A portion of their sleep diary is shown below in Table 2.

[6] = system: PD related hallucinations; conditions: cited from earlier work

SMILES: CC(C)[C@@H](CC[C@@H](C)[C@H]1CC[C@H]2[C@@H]3[C@H](O)C[C@H]4C[C@@H](NCCCNCCCCN)CC[C@]4(C)[C@H]3CC[C@]12C)OS(=O)(=O)O.C[C@H](O)C(=O)O.C[C@H](O)C(=O)O [squalamine dilactate salt]
- Solubility in water [1]: highly water soluble
- Oral bioavailability ([2]; preliminary studies): poorly bioavailable orally
- Absorption ([2]; rodents, subcutaneous and intraperitoneal routes): well absorbed

SMILES: CC(C)[C@@H](CC[C@@H](C)[C@H]1CC[C@H]2[C@@H]3[C@H](O)C[C@H]4C[C@@H](NCCCNCCCCNCCCN)CC[C@]4(C)[C@H]3CC[C@]12C)OS(=O)(=O)O [Aminosterol 1436]
- Duration of the aminosterol-induced response [3]: about 4 days
- Weight loss ([4]; administered parenterally to dogs and rodents): capable of inducing weight loss
- Anorectic activity ([4]; delivered orally): no anorectic activity

SMILES: CC(C)[C@@H](CC[C@@H](C)[C@H]1CC[C@H]2[C@@H]3[C@H](O)C[C@H]4C[C@@H](NCCCNCCCCN)CC[C@]4(C)[C@H]3CC[C@]12C)OS(=O)(=O)O [squalamine]
- Time hallucination-free following discontinuation, patient NY1 ([5]; after 125 mg per day for about a week): 9 days
- Time hallucination-free after discontinuation, patient MV1 ([5]; after 175 mg per day): 30 days
- Hallucinations, patient ([5]; after stopping squalamine administration): vivid hallucinations returned; also recorded: Apparitions back with a vengeance; also recorded: Apparitions, cooks in tall hats; also recorded: Apparitions, cleaning crew in blue uniforms; also recorded: Apparitions, severely disturbed sleep
- Hallucination frequency, patient NY1 ([5]; oral, 100 mg daily, daily hallucinations before): no more than once or twice a week
- Sleep and RBD, patient MV1 ([5]; oral, 125 mg daily): continued to improve
- Hallucinations, patient NY1 ([5]; oral, 125 mg per day): disappeared altogether
- Hallucinations, patient ([5]; oral, 175 mg daily for 3 months): no hallucinations
- Hallucinations, patient MV1 ([5]; oral, daily dose increased to 125 mg): disappeared completely
- Hallucinations, patient MV1 ([5]; oral, dose increased from 75 mg daily): hallucinating less frequently
- Hallucinations, patient ([5]; squalamine restarted at 125 mg daily): hallucinations vanished; also recorded: No hallucinations since last entry; also recorded: No hallucinations since restarting
- Duration of the aminosterol-induced response [3]: about 4 days

SMILES: CC(C)COc1ccc(CNC(=O)N(Cc2ccc(F)cc2)C2CCN(C)CC2)cc1 [Pimavanserin]
- Improvement over placebo on the SCAD-PD questionnaire ([6]; PD related hallucinations): 3 point
- Increased mortality (black box warning) ([6]; label): 11%
